Reference: patent US9006250B2, “4-amino-6-(heterocyclic)picolinates and 6-amino-2-(heterocyclic)pyrimidine-4-carboxylates and their use as herbicides” (Dow AgroSciences, LLC, priority 2013, dated 2015)

How the values were obtained:
[1] = test system: EPHHL: wild poinsettia (Euphorbia heterophylla); assay: Post-Emergent Test II herbicidal activity; type: in vivo; details: post-emergence, 336 h, 14 days, read-out: Visual Growth Reduction (%) 14 Days After Application EPHHL; for pest or weed control at 35 g/ha: 35 g ai/ha; for pest or weed control at 70 g/ha: 70 g ai/ha; for pest or weed control at 140 g/ha: 140 g ai/ha
Protocol: (§1) Post-Emergent Test II: Seeds or nutlets of the desired test plant species were planted in Sun Gro Metro-Mix® 360 planting mixture, which typically has a pH of 6.0 to 6.8 and an organic matter content of about 30 percent, in plastic pots with a surface area of 64 square centimeters. When required to ensure good germination and healthy plants, a fungicide treatment and/or other chemical or physical treatment was applied. The plants were grown for 7-21 d in a greenhouse with an approximate 15 h photoperiod which was maintained at about 23-29° C. during the day and 22-28° C. during the night. Nutrients and water were added on a regular basis and supplemental lighting was provided with overhead metal halide 1000-Watt lamps as necessary. The plants were employed for testing when they reached the first or second true leaf stage.
(§2) A weighed amount, determined by the highest rate to be tested, of each test compound was placed in a 25 mL glass vial and was dissolved in 4 mL of a 97:3 v/v mixture of acetone and DMSO to obtain concentrated stock solutions. […] The concentrated stock solutions obtained were diluted with 20 mL of an aqueous mixture containing acetone, water, isopropyl alcohol, DMSO, Atplus 411F crop oil concentrate, and Triton® X-155 surfactant in a 48.5:39:10:1.5:1.0:0.02 v/v ratio to obtain spray solutions containing the highest application rates. Additional application rates were obtained by serial dilution of 12 mL of the high rate solution into a solution containing 2 mL of 97:3 v/v mixture of acetone and DMSO and 10 mL of an aqueous mixture containing acetone, water, isopropyl alcohol, DMSO, Atplus 411F crop oil concentrate, and Triton X®-155 surfactant in a 48.5:39:10:1.5:1.0:0.02 v/v ratio to obtain ½×, ¼×, ⅛× and 1/16× rates of the high rate. Compound requirements are based upon a 12 mL application volume at a rate of 187 liters per hectare (L/ha). Formulated compounds were applied to the plant material with an overhead Mandel track sprayer equipped with 8002E nozzles calibrated to deliver 187 L/ha over an application area of 0.503 square meters at a spray height of 18 inches […] above the average plant canopy height. Control plants were sprayed in the same manner with the solvent blank.
(§3) The treated plants and control plants were placed in a greenhouse as described above and watered by subirrigation to prevent wash-off of the test compounds. After 14 d, the condition of the test plants as compared with that of the untreated plants was determined visually and scored on a scale of 0 to 100 percent where 0 corresponds to no injury and 100 corresponds to complete kill.

[2] = test system: AMARE: redroot pigweed (Amaranthus retroflexus); assay: Post-Emergent Test II herbicidal activity; type: in vivo; details: post-emergence, 336 h, 14 days, read-out: Visual Growth Reduction (%) 14 Days After Application AMARE; for pest or weed control at 35 g/ha: 35 g ai/ha; for pest or weed control at 70 g/ha: 70 g ai/ha; for pest or weed control at 140 g/ha: 140 g ai/ha
Protocol: as §1, §2, §3

[3] = test system: BRSNN: oilseed rape, canola (Brassica napus); assay: Post-Emergent Test II herbicidal activity; type: in vivo; details: post-emergence, 336 h, 14 days, read-out: Visual Growth Reduction (%) 14 Days After Application BRSNN; for pest or weed control at 35 g/ha: 35 g ai/ha; for pest or weed control at 70 g/ha: 70 g ai/ha; for pest or weed control at 140 g/ha: 140 g ai/ha
Protocol: as §1, §2, §3

[4] = test system: CYPES: yellow nutsedge (Cyperus esculentus); assay: Post-Emergent Test II herbicidal activity; type: in vivo; details: post-emergence, 336 h, 14 days, read-out: Visual Growth Reduction (%) 14 Days After Application CYPES; for pest or weed control at 35 g/ha: 35 g ai/ha; for pest or weed control at 70 g/ha: 70 g ai/ha; for pest or weed control at 140 g/ha: 140 g ai/ha
Protocol: as §1, §2, §3

[5] = test system: ABUTH: velvetleaf (Abutilon theophrasti); assay: Post-Emergent Test II herbicidal activity; type: in vivo; details: post-emergence, 336 h, 14 days, read-out: Visual Growth Reduction (%) 14 Days After Application ABUTH; for pest or weed control at 35 g/ha: 35 g ai/ha; for pest or weed control at 70 g/ha: 70 g ai/ha; for pest or weed control at 140 g/ha: 140 g ai/ha
Protocol: as §1, §2, §3

[6] = test system: HELAN: sunflower (Helianthus annuus); assay: Post-Emergent Test II herbicidal activity; type: in vivo; details: post-emergence, 336 h, 14 days, read-out: Visual Growth Reduction (%) 14 Days After Application HELAN; for pest or weed control at 35 g/ha: 35 g ai/ha; for pest or weed control at 70 g/ha: 70 g ai/ha; for pest or weed control at 140 g/ha: 140 g ai/ha
Protocol: as §1, §2, §3

[7] = test system: ORYSA: rice (Oryza sativa); assay: Post-Emergent Test II herbicidal activity; type: in vivo; details: post-emergence, 336 h, 14 days, read-out: Visual Growth Reduction (%) 14 Days After Application ORYSA; for pest or weed control at 35 g/ha: 35 g ai/ha; for pest or weed control at 70 g/ha: 70 g ai/ha; for pest or weed control at 140 g/ha: 140 g ai/ha
Protocol: as §1, §2, §3

[8] = test system: CHEAL: lambsquarters (Chenopodium album); assay: Post-Emergent Test II herbicidal activity; type: in vivo; details: post-emergence, 336 h, 14 days, read-out: Visual Growth Reduction (%) 14 Days After Application CHEAL; for pest or weed control at 35 g/ha: 35 g ai/ha; for pest or weed control at 70 g/ha: 70 g ai/ha; for pest or weed control at 140 g/ha: 140 g ai/ha
Protocol: as §1, §2, §3

[9] = test system: ECHCG: barnyardgrass (Echinochloa crus-galli); assay: Post-Emergent Test II herbicidal activity; type: in vivo; details: post-emergence, 336 h, 14 days, read-out: Visual Growth Reduction (%) 14 Days After Application ECHCG; for pest or weed control at 35 g/ha: 35 g ai/ha; for pest or weed control at 70 g/ha: 70 g ai/ha; for pest or weed control at 140 g/ha: 140 g ai/ha
Protocol: as §1, §2, §3

[10] = test system: ZEAMX: maize, corn (Zea mays); assay: Post-Emergent Test II herbicidal activity; type: in vivo; details: post-emergence, 336 h, 14 days, read-out: Visual Growth Reduction (%) 14 Days After Application ZEAMX
Protocol: as §1, §2, §3

[11] = test system: TRZAS: wheat, spring (Triticum aestivum); assay: Post-Emergent Test II herbicidal activity; type: in vivo; details: post-emergence, 336 h, 14 days, read-out: Visual Growth Reduction (%) 14 Days After Application TRZAS; for pest or weed control at 35 g/ha: 35 g ai/ha; for pest or weed control at 70 g/ha: 70 g ai/ha; for pest or weed control at 140 g/ha: 140 g ai/ha
Protocol: as §1, §2, §3

[12] = test system: SETFA: giant foxtail (Setaria faberi); assay: Post-Emergent Test II herbicidal activity; type: in vivo; details: post-emergence, 336 h, 14 days, read-out: Visual Growth Reduction (%) 14 Days After Application SETFA; for pest or weed control at 35 g/ha: 35 g ai/ha; for pest or weed control at 70 g/ha: 70 g ai/ha; for pest or weed control at 140 g/ha: 140 g ai/ha
Protocol: as §1, §2, §3

Compound | melting point | pest or weed control at 35 g/ha [1] | pest or weed control at 70 g/ha [1] | pest or weed control at 140 g/ha [1] | pest or weed control at 35 g/ha [2] | pest or weed control at 70 g/ha [2] | pest or weed control at 140 g/ha [2] | pest or weed control at 35 g/ha [3] | pest or weed control at 70 g/ha [3] | pest or weed control at 140 g/ha [3] | pest or weed control at 35 g/ha [4] | pest or weed control at 70 g/ha [4] | pest or weed control at 140 g/ha [4] | pest or weed control at 35 g/ha [5] | pest or weed control at 70 g/ha [5] | pest or weed control at 140 g/ha [5] | pest or weed control at 35 g/ha [6] | pest or weed control at 70 g/ha [6] | pest or weed control at 140 g/ha [6] | pest or weed control at 35 g/ha [7] | other results
COC(=O)c1nc(-c2ccc3nonc3c2)c(F)c(N)c1Cl [Compound 1, Methyl 4-amino-6-(benzo[c][1,2,5]oxadiazol-5-yl)-3-chloro-5-fluoropicolinate] | 180 to 182 °C | 60 to 74% | 60 to 74% | 60 to 74% | 75 to 84% | 75 to 84% | 95 to 100% | 60 to 74% | 60 to 74% | 60 to 74% | 0 to 29% | 0 to 29% | 95 to 100% | 85 to 94% | 85 to 94% | 95 to 100% | 85 to 94% | 95 to 100% | 95 to 100% | 0 to 29% | pest or weed control at 70 g/ha [7]: 0 to 29%; pest or weed control at 140 g/ha [7]: 0 to 29%; pest or weed control at 35 g/ha [8]: 95 to 100%; pest or weed control at 70 g/ha [8]: 95 to 100%; pest or weed control at 140 g/ha [8]: 95 to 100%; pest or weed control at 35 g/ha [9]: 75 to 84%; pest or weed control at 70 g/ha [9]: 75 to 84%; pest or weed control at 35 g/ha ([10]; 35 g ai/ha): 60 to 74%; pest or weed control at 70 g/ha ([10]; 70 g ai/ha): 60 to 74%; pest or weed control at 140 g/ha ([10]; 140 g ai/ha): 60 to 74%; pest or weed control at 35 g/ha [11]: 45 to 59%; pest or weed control at 70 g/ha [11]: 45 to 59%; pest or weed control at 140 g/ha [11]: 60 to 74%
COC(=O)c1nc(-c2ccc3nonc3c2OC)cc(N)c1Cl [Compound 9, Methyl 4-amino-3-chloro-6-(4-methoxybenzo[c][1,2,5]oxadiazol-5-yl)picolinate] | 142 to 144 °C | 0 to 29% | 0 to 29% | 0 to 29% | 45 to 59% | 60 to 74% | 60 to 74% | 0 to 29% | 0 to 29% | 0 to 29% | 0 to 29% | 0 to 29% | 0 to 29% | 0 to 29% | 0 to 29% | 0 to 29% | 0 to 29% | 0 to 29% | 0 to 29% | 0 to 29% | pest or weed control at 35 g/ha [12]: 0 to 29%; pest or weed control at 70 g/ha [12]: 0 to 29%; pest or weed control at 140 g/ha [12]: 0 to 29%; pest or weed control at 70 g/ha [7]: 0 to 29%; pest or weed control at 140 g/ha [7]: 0 to 29%; pest or weed control at 35 g/ha [8]: 60 to 74%; pest or weed control at 70 g/ha [8]: 60 to 74%; pest or weed control at 140 g/ha [8]: 75 to 84%; pest or weed control at 35 g/ha [9]: 0 to 29%; pest or weed control at 70 g/ha [9]: 0 to 29%; pest or weed control at 140 g/ha [9]: 0 to 29%; pest or weed control at 35 g/ha [11]: 0 to 29%; pest or weed control at 70 g/ha [11]: 0 to 29%; pest or weed control at 140 g/ha [11]: 0 to 29%
COC(=O)c1nc(-c2cccc3nonc23)cc(N)c1Cl [Compound 16] | 157 to 160 °C | 0 to 29% | 0 to 29% | 0 to 29% | 85 to 94% | 95 to 100% | 95 to 100% | 30 to 44% | 45 to 59% | 60 to 74% | 0 to 29% | 0 to 29% | 0 to 29% | 0 to 29% | 0 to 29% | 0 to 29% | 0 to 29% | 30 to 44% | 60 to 74% | 0 to 29% | pest or weed control at 35 g/ha [12]: 0 to 29%; pest or weed control at 70 g/ha [12]: 0 to 29%; pest or weed control at 140 g/ha [12]: 0 to 29%; pest or weed control at 70 g/ha [7]: 0 to 29%; pest or weed control at 140 g/ha [7]: 0 to 29%; pest or weed control at 35 g/ha [8]: 60 to 74%; pest or weed control at 70 g/ha [8]: 75 to 84%; pest or weed control at 140 g/ha [8]: 85 to 94%; pest or weed control at 35 g/ha [9]: 0 to 29%; pest or weed control at 70 g/ha [9]: 0 to 29%; pest or weed control at 140 g/ha [9]: 0 to 29%; pest or weed control at 35 g/ha [11]: 0 to 29%; pest or weed control at 70 g/ha [11]: 0 to 29%; pest or weed control at 140 g/ha [11]: 0 to 29%
